Reference: patent publication US11116778B2, “Prodrugs of ALOX-15 inhibitors and methods of using the same” (EMPIRICO INC., priority 2019, dated 2021)

What was measured:
ALOX15 mRNA [1] = assay: ALOX15 mRNA by RT-qPCR in human nasal epithelial primary cells; assay type: cell-based; settings: 5 μM or 1 μM, 3 x 24 hours with 20 ng/mL IL-13
Experimental: Human nasal epithelial primary cells (HNEpC) (PromoCell GmbH, Heidelberg, Germany) were cultured according to the manufacturer in provided Primary Cell media in 24 well plates at a density of 25,000 cells per well. Cells were treated with 5 μM or 1 μM of compound 5 or vehicle only (water) in media containing 20 ng/mL IL-13 for 24 hours in a 37° C. cell culture incubator. The following day, media was replaced and fresh media containing 20 ng/mL IL-13 and compound 5 or vehicle was added to each well, then incubated again for 24 hours in a 37° C. cell culture incubator. The process was repeated once more for a 24-hour period.
ALOX15 and POSTN mRNA levels were measured by RT-qPCR. […] The level of ALOX15 mRNA from each sample was measured in triplicate by real-time qPCR on an Applied Biosystems 7500 Fast Real-Time PCR machine using the TaqMan Gene Expression Assay for human ALOX15 (ThermoFisher, assay #Hs00993765_g1). The level of PPIA mRNA was measured in biplex reactions using TaqMan Gene Expression Assay (ThermoFisher, assay #Hs99999904_ml) and used to determine relative ALOX15 mRNA levels in each well using the delta-delta Ct method. […] Relative POSTN mRNA levels were measured as above using TaqMan Gene Expression Assay specific for human POSTN mRNA (ThermoFisher, assay #Hs00170815_m1). […]

ALOX15 mRNA [2] = assay: ALOX15 mRNA by RT-qPCR in rabbit nasal mucosa; assay type: in vivo; settings: rostral and caudal regions; rabbits, compound 5 10 mM intranasal
Experimental: Six (6) female NZW rabbits were employed in this study. Rabbits were obtained from Covance (Denver Pa.). Rabbits were between approximately 10 and 12 months of age at the time of study start. At time point 0, all animals received 50 μL of solution containing rabbit IL4 (RND Systems/Biotechne) and human IL13 (PreproTech) at a concentration of 0.25 mg/mL each in 0.5×PBS containing 12.5 mg/mL BSA per nostril. This was administered intranasally via a venous catheter attached to a micropipette. The animal was positioned in a supine manner and the venous catheter inserted into the nostril. The volume was introduced into the nasal cavity and the same procedure was repeated with the other nostril. […]
Relative ALOX15 and POSTN mRNA levels in nasal mucosa were measured by RT-qPCR. […] The level of ALOX15 or POSTN mRNA from each sample was measured in triplicate by real-time qPCR on an Applied Biosystems 7500 Fast Real-Time PCR machine using the TaqMan Gene Expression Assay for rabbit ALOX15 (ThermoFisher, assay #Oc03823548_s1). The level of GAPDH mRNA was measured in biplex reactions using TaqMan Gene Expression Assay (ThermoFisher, assay #Oc03823402_g1) and used to determine relative ALOX15 mRNA levels in each well using the delta-delta Ct method. […] Relative POSTN mRNA levels were measured as above using TaqMan Gene Expression Assay specific for rabbit POSTN mRNA (ThermoFisher, assay #Oc06804808_s1). […]

Question: What does the source list for `O=C(Nc1ccc(F)cc1Cl)c1nn(COP(=O)(O)O)c(Cl)c1Cl` [compound 5, (4,5-dichloro-3-((2-chloro-4-fluorophenyl)carbamoyl)-1H-pyrazol-1-yl)methyl dihydrogen phosphate]?
Answer: relative level of ALOX15 mRNA versus vehicle (FIG. 7) (ALOX15 mRNA [1]): lower; relative level of ALOX15 mRNA in nasal mucosa versus vehicle (FIG. 11) (ALOX15 mRNA [2]): lower
